Reference: US9359367B2, “Tetrahydroquinazolinone derivatives as PARP inhibitors” (Lupin Limited, priority 2012, dated 2016)

target: T1, PARP1 (Homo sapiens, UniProt P09874); assay: PARP1 Biochemical Assay (BPS Bioscience kit, chemiluminescence); conditions: histone-coated plate, biotinilated NAD+, 25° C. for 60 min, luminescence, read-out: PARP 1 inhibition IC50
T1 construct: purchased BPS Bioscience
Outline: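 Human PARP1 (25–75 ng/well) with activated DNA was incubated with compound on histone-coated wells. Biotinylated NAD+ was added and the reaction ran 60 min at 25 °C. Ribosylation was detected by streptavidin-HRP chemiluminescence, % inhibition was normalised to enzyme-free and uninhibited controls, and IC50 was fitted from % inhibition versus concentration.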

T1 sequence (P09874 whole entry): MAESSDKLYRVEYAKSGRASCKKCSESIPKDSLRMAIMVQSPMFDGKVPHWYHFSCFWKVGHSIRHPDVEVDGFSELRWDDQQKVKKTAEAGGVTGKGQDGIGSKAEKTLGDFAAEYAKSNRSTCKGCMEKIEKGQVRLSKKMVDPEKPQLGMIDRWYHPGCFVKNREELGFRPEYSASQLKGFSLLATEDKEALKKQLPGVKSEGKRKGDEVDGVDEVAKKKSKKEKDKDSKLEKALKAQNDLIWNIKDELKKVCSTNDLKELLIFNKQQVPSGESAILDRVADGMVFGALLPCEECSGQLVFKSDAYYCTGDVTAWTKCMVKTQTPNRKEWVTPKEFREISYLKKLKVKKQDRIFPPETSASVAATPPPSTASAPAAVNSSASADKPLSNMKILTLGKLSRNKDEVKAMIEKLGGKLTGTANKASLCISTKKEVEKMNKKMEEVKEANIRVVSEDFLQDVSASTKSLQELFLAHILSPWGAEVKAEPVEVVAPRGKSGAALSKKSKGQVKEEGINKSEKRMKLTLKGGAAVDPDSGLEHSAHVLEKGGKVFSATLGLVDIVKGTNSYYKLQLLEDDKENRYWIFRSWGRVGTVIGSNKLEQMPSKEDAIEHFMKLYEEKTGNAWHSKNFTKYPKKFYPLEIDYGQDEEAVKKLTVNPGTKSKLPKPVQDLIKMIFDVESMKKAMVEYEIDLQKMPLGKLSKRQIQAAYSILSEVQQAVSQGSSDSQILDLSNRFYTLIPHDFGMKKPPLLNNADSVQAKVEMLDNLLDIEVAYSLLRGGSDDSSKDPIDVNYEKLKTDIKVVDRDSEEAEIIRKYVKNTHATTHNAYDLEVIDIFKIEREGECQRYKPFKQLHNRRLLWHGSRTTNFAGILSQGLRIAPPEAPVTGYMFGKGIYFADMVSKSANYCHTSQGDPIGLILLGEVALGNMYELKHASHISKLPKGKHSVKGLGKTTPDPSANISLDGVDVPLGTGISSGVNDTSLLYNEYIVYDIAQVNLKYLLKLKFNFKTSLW

Row | Compound | IC50 [nM]
1 | Cc1ccc(C2CCN([C@H]3C=C(c4nc5c(c(=O)[nH]4)CC4(CC5)CC4)CC3)CC2)cc1 [Compound 77, (R)-2′-(3-(4-(p-tolyl)piperidin-1-yl)cyclopent-1-en-1-yl)-7′,8′-dihydro-3′H-spiro[cyclopropane-1,6′-quinazolin]-4′(5′H)-one] | 1 to 500
2 | O=c1[nH]c(C2=C[C@H](N3CCN(c4ccc(Cl)cc4F)CC3)CC2)nc2c1CC1(CC2)CC1 [Compound 63, (R)-2′-(3-(4-(4-chloro-2-fluorophenyl)piperazin-1-yl)cyclopent-1-en-1-yl)-7′,8′-dihydro-3′H-spiro[cyclopropane-1,6′-quinazolin]-4′(5′H)-one] | 1 to 500
3 | CC1CN(c2ccc(F)cc2)CCN1CCCc1nc2c(c(=O)[nH]1)CC1(CC2)CC1 (centres unmarked) [Compound 27, 2′-(3-(4-(4-fluorophenyl)-2-methylpiperazin-1-yl)propyl)-7′,8′-dihydro-3′H-spiro[cyclopropane-1,6′-quinazolin]-4′(5′H)-one] | 1 to 500
4 | O=c1[nH]c(CCCN2CCN(c3ccc(F)cc3)CC2)nc2c1CCCC21CC1 [Compound 1, 2′-(3-(4-(4-fluorophenyl)piperazin-1-yl)propyl)-6′,7′-dihydro-3′H-spiro[cyclopropane-1,8′-quinazolin]-4′(5′H)-one] | 1 to 500
5 | CC(C)(CCc1nc2c(c(=O)[nH]1)CC1(CC2)CC1)N1CCN(c2ccc(F)cc2)CC1 [Compound 30, 2′-(3-(4-(4-fluorophenyl)piperazin-1-yl)-3-methylbutyl)-7′,8′-dihydro-3′H-spiro[cyclopropane-1,6′-quinazolin]-4′(5′H)-one] | 1 to 500
6 | O=c1[nH]c(C2=C[C@H](N3CCN(c4ccc(F)cn4)CC3)CC2)nc2c1CC1(CC2)CC1 [Compound 58, (R)-2′-(3-(4-(5-fluoropyridin-2-yl)piperazin-1-yl)cyclopent-1-en-1-yl)-7′,8′-dihydro-3′H-spiro[cyclopropane-1,6′-quinazolin]-4′(5′H)-one] | 1 to 500
7 | O=c1[nH]c(CCCN2CCN(c3cccc(C(F)(F)F)c3)CC2)nc2c1CC1(CC2)CC1 [Compound 22, 2′-(3-(4-(3-(trifluoromethyl)phenyl)piperazin-1-yl)propyl)-7′,8′-dihydro-3′H-spiro[cyclopropane-1,6′-quinazolin]-4′(5′H)-one] | 5000 to 500000
8 | COc1ccc(N2CCN([C@H]3C=C(c4nc5c(c(=O)[nH]4)CC4(CC5)CC4)CC3)CC2)cc1 [Compound 74, (R)-2′-(3-(4-(4-methoxyphenyl)piperazin-1-yl)cyclopent-1-en-1-yl)-7′,8′-dihydro-3′H-spiro[cyclopropane-1,6′-quinazolin]-4′(5′H)-one] | 1 to 500

The remaining lines, values ahead:

Row | IC50 [nM] | Compound
9 | 1 to 500 | O=c1[nH]c(C2=C[C@H](N3CCN(c4ccc(F)cc4Cl)CC3)CC2)nc2c1CC1(CC2)CC1 [Compound 79, (R)-2′-(3-(4-(2-chloro-4-fluorophenyl)piperazin-1-yl)cyclopent-1-en-1-yl)-7′,8′-dihydro-3′H-spiro[cyclopropane-1,6′-quinazolin]-4′(5′H)-one]
10 | 1 to 500 | Cc1ccc(F)cc1N1CCN([C@H]2C=C(c3nc4c(c(=O)[nH]3)CC3(CC4)CC3)CC2)CC1 [Compound 123, (R)-2′-(3-(4-(5-fluoro-2-methylphenyl)piperazin-1-yl)cyclopent-1-en-1-yl)-7′,8′-dihydro-3′H-spiro[cyclopropane-1,6′-quinazolin]-4′(5′H)-one]
11 | 1 to 500 | Cc1cc(N2CCN([C@H]3C=C(c4nc5c(c(=O)[nH]4)CC4(CC5)CC4)CC3)CC2)ccn1 [Compound 147, (R)-2′-(3-(4-(2-methylpyridin-4-yl)piperazin-1-yl)cyclopent-1-en-1-yl)-7′,8′-dihydro-3′H-spiro[cyclopropane-1,6′-quinazolin]-4′(5′H)-one]
12 | 5000 to 500000 | O=c1[nH]c([C@@H]2CC[C@@H](N3CCN(c4ccc(Cl)cc4)CC3)C2)nc2c1CC1(CC2)CC1 [Compound 121, 2′-((1R,3R)-3-(4-(4-chlorophenyl)piperazin-1-yl)cyclopentyl)-7′,8′-dihydro-3′H-spiro[cyclopropane-1,6′-quinazolin]-4′(5′H)-one]
13 | 1 to 500 | COc1cc(N2CCN([C@H]3C=C(c4nc5c(c(=O)[nH]4)CC4(CC5)CC4)CC3)CC2)ccc1F [Compound 114, (R)-2′-(3-(4-(4-fluoro-3-methoxyphenyl)piperazin-1-yl)cyclopent-1-en-1-yl)-7′,8′-dihydro-3′H-spiro[cyclopropane-1,6′-quinazolin]-4′(5′H)-one]
14 | 1 to 500 | CNC(=O)c1ccc(N2CCN([C@H]3C=C(c4nc5c(c(=O)[nH]4)CC4(CC5)CC4)CC3)CC2)cc1Cl [Compound 94, (R)-2-chloro-N-methyl-4-(4-(3-(4′-oxo-4′,5′,7′,8′-tetrahydro-3′H-spiro[cyclopropane-1,6′-quinazolin]-2′-yl)cyclopent-2-en-1-yl)piperazin-1-yl)benzamide]
15 | 1 to 500 | O=c1[nH]c([C@H]2CC[C@H](N3CCN(c4ccc(Cl)cc4)CC3)C2)nc2c1CC1(CC2)CC1 [Compound 119, 2′-((1S,3S)-3-(4-(4-chlorophenyl)piperazin-1-yl)cyclopentyl)-7′,8′-dihydro-3′H-spiro[cyclopropane-1,6′-quinazolin]-4′(5′H)-one]
16 | 1 to 500 | Cc1cc(N2CCN([C@H]3C=C(c4nc5c(c(=O)[nH]4)CC4(CC5)CC4)CC3)CC2)ncc1F [Compound 137, (R)-2′-(3-(4-(5-fluoro-4-methylpyridin-2-yl)piperazin-1-yl)cyclopent-1-en-1-yl)-7′,8′-dihydro-3′H-spiro[cyclopropane-1,6′-quinazolin]-4′(5′H)-one]
17 | 1 to 500 | O=c1[nH]c(C2=C[C@H](N3CCN(c4ccccc4Cl)CC3)CC2)nc2c1CC1(CC2)CC1 [Compound 122, (R)-2′-(3-(4-(2-chlorophenyl)piperazin-1-yl)cyclopent-1-en-1-yl)-7′,8′-dihydro-3′H-spiro[cyclopropane-1,6′-quinazolin]-4′(5′H)-one]
